Measurements from patent US9242015B2, “Development and screening of contrast agents for in vivo imaging of Parkinson's disease” (The General Hospital Corporation, priority 2010, dated 2016).

Key:
[1] = system: AD Plaque; test: Staining of plaques in AD temporal lobe sections; type: binding, human; details: 5 μM dye in PBS; further: key: positive (+) staining for both plaques and tangles; did not bind (−) AD pathology
Procedure: (§1) Paraffin-embedded formalin-fixed tissue from the temporal lobe of AD patients was obtained through the MA ADRC Brain Bank. Sections were stained with 0.05% Thio S to visualize plaques and NFT. Tissue was then stained with 5 μM dye in PBS. Slides were imaged on an Olympus Microscope at 20×, with a GFP emission filter for Thio S, and appropriate emission ranges for the dyes.

[2] = molecular target: T1, Lewy bodies (Homo sapiens, UniProt P37840); test: Staining of Lewy bodies in post-mortem DLB/PD midbrain tissue; on staining on a LB (FIG. 2): key: positive staining with high contrast (++); positive staining with low contrast (+); negative staining (−); type: binding; details: for Lewy Bodies Contrast: DLB/PD post-mortem midbrain tissue, dyes in PBS at 500 nM, 5 μM for 30 minutes; for staining on a LB (FIG. 2): DLB post-mortem midbrain tissue
T1 construct: Post-mortem midbrain tissue from DLB and PD patients was obtained from the HBTRC Brain Bank at McLean Hospital; tissue HBTRC Brain Bank at McLean Hospital; host or cells: formalin-fixed post-mortem human midbrain (DLB and PD patients)
Procedure: (§3) Post-mortem midbrain tissue from DLB and PD patients was obtained from the HBTRC Brain Bank at McLean Hospital. Tissue was fixed with formalin and immuno-stained with H3C primary antibody for synuclein and Alexa488 or Cy5 (not shown) conjugated secondary antibody. Immuno-stained tissue was incubated with fluorescent dyes in PBS at concentrations of 500 nM, 2 μM, and 5 μM for 30 minutes. Slides of tissue were imaged with Olympus Microscope at 60× with appropriate filter set.

[3] = system: AD NFT; test: Staining of neurofibrillary tangles (NFT) in AD temporal lobe sections; type: binding, human; details: 5 μM dye in PBS; further: key: positive (+) staining for both plaques and tangles; did not bind (−) AD pathology
Procedure: as §1

[4] = molecular target: T2, Lewy neurites (Homo sapiens, UniProt P37840); test: Staining of Lewy neurites in post-mortem DLB/PD midbrain tissue; on all read-outs here: key: positive staining with high contrast (++); positive staining with low contrast (+); negative staining (−); type: binding; details: for Lewy Neurites Contrast: DLB/PD post-mortem midbrain tissue, dyes in PBS at 500 nM, 5 μM for 30 minutes; for staining on a LN (FIG. 2): DLB post-mortem midbrain tissue
T2 construct: Post-mortem midbrain tissue from DLB and PD patients was obtained from the HBTRC Brain Bank at McLean Hospital; tissue HBTRC Brain Bank at McLean Hospital; host or cells: formalin-fixed post-mortem human midbrain (DLB and PD patients)
Procedure: as §3

[5] = Log P
[6] = Blood-brain barrier crossing by in vivo fluorescence imaging after IV injection; details: for BBB Crossing: mouse, in vivo
Description: (§2) Wide field fluorescence images were taken with a CCD camera on an Olympus microscope.
Images were taken with a BIO-RAD MRC1024 multi-photon microscope.
as §2

[7] = PD/APP transgenic mouse (18 mo), tail vein, 10 mg/kg, multi-photon microscope; cited from earlier work

Compound	AD Plaque Contrast [1]	Lewy Bodies Contrast ([2]; 2 μM)	AD NFT Contrast [3]	Lewy Neurites Contrast ([4]; 2 μM)	further results
CN1C(=CC=CC=CC=CC2=[N+](C)c3ccccc3C2(C)C)C(C)(C)c2ccccc21.[O-][Cl+3]([O-])([O-])[O-] [HITC ClO4, 2-[7-(1,3-dihydro-1,3,3-trimethyl-2H-indol-2-ylidene)-1,3,5-heptatrienyl]-1,3,3-trimethyl-3H-indolium perchlorate]	−	+	−	−	
CC[n+]1ccc(C=CC=Cc2ccc(N(C)C)cc2)cc1.[O-][Cl+3]([O-])([O-])[O-] [LDS 722, 4-[4-[4-(dimethylamino)phenyl]-1,3-butadienyl]-1-ethyl-pyridinium perchlorate]	+ +	+ +	+ +	+	logP [5]: 1.04; staining on a LB (FIG. 2) ([2]; 2 μM): ++; staining on a LN (FIG. 2) ([4]; 2 μM): ++
CCN=c1cc2oc3c4c5c(cc3nc-2c2ccccc12)CCCN5CCC4 [Oxazine 750, reference compound]					staining on a LB (FIG. 2) ([2]; 5 μM): −; staining on a LN (FIG. 2) ([4]; 5 μM): −
O=C1NC(=S)NC(=O)C1=C/C=C/C=C/c1c(O)[nH]c(=S)[nH]c1=O [THK-265]	+	+	−	−	BBB Crossing [6]: −
CCN1C(=CC=CC=Cc2sc3ccccc3[n+]2CC)Sc2ccccc21.[I-] [3-3′-DTDCI, 3,3′-diethylthiadicarbocyanine iodide]	+	+	−	−	BBB Crossing [6]: −
CCN(CC)c1ccc2nc3c4ccccc4c(=O)cc-3oc2c1 [Nile Red, 9-diethylamino-5-benzo[α]phenoxazinone]	−	+	−	−	logP [5]: 3.51
CN(C)c1ccc(C=CC=CC2=[N+](C)c3ccccc3C2(C)C)cc1.[O-][Cl+3]([O-])([O-])[O-] [LDS 730, 2-[4-[4-(dimethylamino)phenyl]-1,3-butadienyl]-1,3,3-trimethyl-3H-indolium perchlorate]		+	+	−	
[11CH3]Nc1ccc(-c2nc3ccc(O)cc3s2)cc1 [PiB]					time to cross the BBB after IV injection [7]: ≤ 1 min
4-[4-[4-(dimethylamino)phenyl]-1,3-butadienyl]-1-ethyl quinolinium [LDS 798]	−	+ +	−	−	Log P [5]: 1.8; BBB Crossing [6]: +; BBB crossing (wide field fluorescence time course) ([6]; wildtype mouse, IV, 10 mg/kg in 6% DMSO and 1×PBS): crosses BBB and rapidly enters brain
CCN(CC)c1ccc2nc3c(cc(N)c4ccccc43)[o+]c2c1.[O-][Cl+3]([O-])([O-])[O-] [Nile Blue 690 ClO4, 5-amino-9-(diethylamino)-benzo[a]phenoxazin-7-ium perchlorate]	−	+ +	−	−	
O=S(=O)([O-])c1ccccc1C=Cc1ccc(-c2ccc(C=Cc3ccccc3S(=O)(=O)[O-])cc2)cc1.[Na+].[Na+] [Stilbene 420, 2,2″-([1,1′-biphenyl]-4.4′-diyldi-2,1-ethenediyl)bis-benzenesulfonic acid disodium salt]		+ +	+	+	
